In brackets after ≈: the same amount, converted by molar mass. Where two headings read alike, the source gives them in different places. Non-standard residues stand in square brackets, D forms with d. Residues, ends and D or L forms follow the SMILES beside them. *: point of attachment. NHhexadecyl = CCCCCCCCCCCCCCCCN*
Assays:
[1] = target: T1, Sequencing Grade Modified Trypsin (Sus scrofa, UniProt P00761); assay: Stability with trypsin by LC-MS; assay type: in vitro ADME; details: 5 µM SGMT trypsin, 50 mM Tris-HCl, 1 mM CaCl2, pH 7.6, 24 h, 37 °C; read-out LC-MS (ESI)
T1 construct: purchased Promega
Method: (§1) The antimicrobial activity and structural stability of arginine-rich peptides were evaluated in the presence of human serum (20% and 50 %) and 5 µM Sequencing Grade Modified Trypsin (SGMT, Promega). Briefly, fresh human blood was collected in EDTA tubes and allowed to clot at room temperature for 1 h. Serum was then collected following centrifugation at 2,000 r.p.m. for 10 min at 4 °C. Peptides were incubated with 20%, 50% human serum and 5 µM SGMT in 50 mM Tris-HCl buffer (1 mM CaCl₂, pH 7.6) for 24 h at 37 °C. After the incubation period, the solutions were further incubated with E. coli (ATCC 25922 and O157:H7), P. aeruginosa (PA01, NCTC13437) and S. aureus (ATCC12600), and the MIC was assessed as described in the ‘Antibacterial assessment’ section. Additionally, the samples were analysed using electrospray ionization MS to monitor structural changes based on the molecular weight of the peptides.

[2] = Stability in human serum by LC-MS; assay type: in vitro ADME; details: human serum (20% and 50%), 24 h, 37 °C; read-out LC-MS (ESI)
Method: as §1

S. aureus (ATCC12600) = assay type: cell-based, Staphylococcus aureus
Method: (§2) The MIC of arginine-based peptides was assessed using the microbroth dilution approach. Our in vitro screening included a panel of Gram-negative bacteria, Escherichia coli (ATCC 25922 and enterohaemorrhagic O157:H7) and Pseudomonas aeruginosa (PA01 and the drug-resistant strain NCTC 13437), and Gram-positive bacteria (Staphylococcus aureus ATCC 12600). Five-millilitre overnight cultures in Lysogeny broth, prepared from single isolated colonies, were diluted to 5×10^6 c.f.u. ml^−1 mid-log phase in Mueller–Hinton (MH) broth. Next, peptide concentrations (0 to 1 mM) were serially diluted twofold in 96-well plates and incubated overnight at 37 °C with the tested bacterial strains. In each case, the MIC was determined as the lowest peptide concentration at which no detectable bacterial growth was observed, employing an absorbance-based assay using a Tecan Spark® multimode plate reader. Subsequently, 10 µl aliquots from each peptide dilution were transferred to MH agar (1.5%) plates to determine the minimum bactericidal concentration (MBC) which was assessed by establishing at which concentration no visible growth of bacteria (assessed via colony formation) on the plate was observed.

E. coli ATCC 25922 [3] = assay: Cytoplasmic membrane depolarization, DiSC3(5); assay type: cell-based, Escherichia coli; details: peptide at 2× MIC or 1,000 µM, positive control Triton X-100
Method: The dye 3,3′-dipropylthiadicarbocyanine iodide DiSC3(5) was employed to evaluate perturbation of the bacterial membrane by our designed arginine-rich peptides. For this, a black 96-well microtiter plate containing 150 µl E. coli cells (OD600=0.5) in MH broth per well was incubated with 0.5 µM DiSC3(5) in 5 mM HEPES buffer (pH 7.4, supplemented with 5 mM glucose and 0.1 M KCl) for 15 min to allow for fluorescence quenching. Then, 2× MIC or 1 mM peptide was added, and changes in fluorescence were monitored in real-time (λex=622 nm, λem=670 nm) using a microplate reader.

S. aureus = assay: Intracellular ROS, DCFH-DA; assay type: cell-based, Staphylococcus aureus; details: peptides at MIC, 1/2× MIC, 1/4× MIC, 4 h, 37 °C
Method: (§3) Total reactive oxygen species (ROS) was measured using an oxidation-sensitive fluorescent dye, 2′,7′-dichlorodihydrofluorescein diacetate (DCFH-DA). For this assay, E. coli and S. aureus cultures were adjusted to an OD600 of 0.3 in MH broth and exposed to peptides at MIC, 1/2× MIC and 1/4× MIC, or to positive control (5 mM H2O2) for 4 h at 37 °C. Cells were centrifuged at 4,000 r.p.m. for 10 min at 4 °C and resuspended in PBS containing 10 µM DCFH-DA. The suspension was incubated under the same conditions for 30 min. Finally, cells were washed twice with PBS, and 150 µl aliquots were transferred to 96-well plates. Oxidized DCF products were detected using a Tecan Spark® microplate reader with excitation at 485 nm and emission at 530 nm. Additionally, 10 µl of E. coli cells incubated with D-R4F4 at MIC, 1/2×MIC and 1/4×MIC was collected for imaging using an All-in-One Fluorescence Microscope (Keyence, Japan).

E. coli ATCC 25922 [4] = assay: Membrane integrity, PI uptake; assay type: cell-based, Escherichia coli; details: E. coli ATCC 25922, 5 µg ml−1 PI, 1 h
Method: (§4) Propidium iodide (PI) uptake was used to assess the permeabilization of the bacterial membrane upon incubation with peptides. E. coli and S. aureus cells, adjusted to an OD600 of 0.5, were placed into a 96-well plate containing 5 mM HEPES buffer (pH 7.4, supplemented with 5 mM glucose) and incubated with 5 µg ml^−1 PI for 15 min. Afterwards, different peptide concentrations were added, and PI uptake was rapidly measured every 10 min over a 1 h period using a Tecan Spark® microplate reader (λex=515 nm, λem=620 nm).

E. coli [5] = assay: Intracellular ROS, DCFH-DA; assay type: cell-based, Escherichia coli; details: peptides at MIC, 1/2× MIC, 1/4× MIC, 4 h, 37 °C
Method: as §3

S. aureus ATCC 12600 = assay: Membrane integrity, PI uptake; assay type: cell-based, Staphylococcus aureus; details: S. aureus ATCC 12600, 5 µg ml−1 PI, 1 h
Method: as §4

P. aeruginosa (PA01) [6] = assay type: cell-based, Pseudomonas aeruginosa
Method: as §2, §1

S. aureus (12600) = assay type: cell-based, Staphylococcus aureus
Method: as §2, §1

E. coli (O157:H7) = assay type: cell-based, Escherichia coli
Method: as §2

E. coli (ATCC25922) = assay type: cell-based, Escherichia coli; details: E. coli ATCC25922
Method: as §2

P. aeruginosa (PA01) [7] = assay type: cell-based, Pseudomonas aeruginosa; details: P. aeruginosa PA01
Method: as §2

[8] = test system: P. aeruginosa (NCTC13437); assay type: cell-based, Pseudomonas aeruginosa; details: P. aeruginosa NCTC13437 (drug-resistant)
Method: as §2

E. coli [9] = assay: Live/dead SYTO 9/PI fluorescence imaging; assay type: cell-based, Escherichia coli; details: mid-log phase E. coli, 2× MIC; red = damaged membranes
E. coli (25922) = assay type: cell-based, Escherichia coli
Method: as §2, §1

[10] = control without serum or trypsin
[11] = peptide incubated with 5 µM SGMT trypsin in 50 mM Tris-HCl, 1 mM CaCl2, pH 7.6, 24 h at 37 °C before MIC
[12] = peptide incubated with 20% human serum 24 h at 37 °C before MIC
[13] = peptide incubated with 50% human serum 24 h at 37 °C before MIC
[14] = 10 µl aliquots plated on MH agar, no visible colonies
[15] = MH broth, 5×10^6 cells, 24 h, 37 °C, absorbance 600 nm, triplicate

T1 sequence (P00761 9-231): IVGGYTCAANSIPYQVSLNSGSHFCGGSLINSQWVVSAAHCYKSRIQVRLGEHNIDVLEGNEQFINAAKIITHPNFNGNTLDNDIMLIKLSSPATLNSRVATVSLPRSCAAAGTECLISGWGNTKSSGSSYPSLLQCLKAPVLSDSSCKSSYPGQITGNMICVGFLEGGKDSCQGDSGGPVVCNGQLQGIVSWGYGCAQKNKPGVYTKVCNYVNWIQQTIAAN

Which results are given for `N=C(N)NCCC[C@@H](N)C(=O)N[C@@H](CCCNC(=N)N)C(=O)N[C@H](CCCNC(=N)N)C(=O)N[C@@H](CCCNC(=N)N)C(=O)N[C@H](Cc1ccccc1)C(=O)N[C@@H](Cc1ccccc1)C(=O)N[C@H](Cc1ccccc1)C(=O)N[C@@H](Cc1ccccc1)C(=O)O` [D-R4F4] (H-[dR]R[dR]R[dF]F[dF]F-OH)?
Stability with trypsin (LC chromatogram and mass spectrum) [1]: appeared at the same retention time in both the absence and presence of proteases; Stability with serum proteases (LC chromatogram and mass spectrum) [2]: appeared at the same retention time in both the absence and presence of proteases; MBC (S. aureus (ATCC12600); ATCC12600): 250 µM (≈ 308 µg/mL); MIC (S. aureus (ATCC12600); ATCC12600, 24 h): 125 µM (≈ 154 µg/mL)

Which results are given for `CCCCCCCCCCCCCCCCNC(=O)[C@H](CCCNC(=N)N)NC(=O)[C@H](CCCNC(=N)N)NC(=O)[C@H](CCCNC(=N)N)NC(=O)[C@@H](N)CCCNC(=N)N` [Peptide R4-C16] (H-RRRR-NHhexadecyl; N-terminus and C-terminus assumed)?
Cytoplasmic membrane depolarization, DiSC3(5) fluorescence (E. coli ATCC 25922 [3]): significantly higher fluorescence levels compared to the positive control; Intracellular ROS levels (S. aureus): highest modulation of ROS levels; PI uptake, membrane integrity (E. coli ATCC 25922 [4]): membrane-disruptive activity; Intracellular ROS levels (E. coli [5]): highest modulation of ROS levels; PI uptake, membrane integrity (S. aureus ATCC 12600): membrane-disruptive activity

With Polymyxin B [reference compound] as the compound, how does the “MIC, Control” value (P. aeruginosa (PA01) [6]; [10]) read?
Its value is 2.4 µM.

And the “MIC, Trypsin” value (P. aeruginosa (PA01) [6]; [11])?
The value was 2.4 µM.

What about the “MIC, 20% human serum” value (P. aeruginosa (PA01) [6]; [12]) of the same compound?
The value was 2.4 µM.

And the “MIC, 50% human serum” value (P. aeruginosa (PA01) [6]; [13])?
The value was 2.4 µM.

And the “MIC, Control” value (S. aureus (12600); [10])?
The value was >76.8 µM.

What about the “MIC, Trypsin” value (S. aureus (12600); [11]) of the same compound?
Its value is >76.8 µM.

And the “MIC, 20% human serum” value (S. aureus (12600); [12])?
The value was >76.8 µM.

And the “MIC, 50% human serum” value (S. aureus (12600); [13])?
Its value is >76.8 µM.

And the MBC (E. coli (O157:H7); [14])?
The MBC was 4.8 µM.

What about the MIC (E. coli (O157:H7); [15]) of the same compound?
Its MIC is 4.8 µM.

What about the MBC (E. coli (ATCC25922); [14]) of the same compound?
Its MBC is 4.8 µM.

What about the MIC (E. coli (ATCC25922); [15]) of the same compound?
Its MIC is 2.8 µM.

What about the MBC (S. aureus (ATCC12600); S. aureus ATCC12600, 10 µl aliquots plated on MH agar, no visible colonies) of the same compound?
Its MBC is > 76.8 µM.

And the MIC (S. aureus (ATCC12600); S. aureus ATCC12600, MH broth, 5×10^6 cells, 24 h, 37 °C, absorbance 600 nm, triplicate)?
Its MIC is > 76.8 µM.

What about the MBC (P. aeruginosa (PA01) [7]; [14]) of the same compound?
Its MBC is 4.8 µM.

And the MIC (P. aeruginosa (PA01) [7]; [15])?
The MIC was 2.4 µM.

And the MBC [8, 14]?
Its MBC is 38.4 µM.

What about the MIC [8, 15] of the same compound?
The MIC was 9.6 µM.

What about the “Membrane damage, live/dead SYTO 9/PI staining” value (E. coli [9]) of the same compound?
The value was “high presence of red-stained cells indicative of damaged membranes”.

What about the “MIC, Control” value (E. coli (25922); [10]) of the same compound?
The value was 2.8 µM.

What about the “MIC, Trypsin” value (E. coli (25922); [11]) of the same compound?
Its value is 2.4 µM.

And the “MIC, 20% human serum” value (E. coli (25922); [12])?
The value was 2.8 µM.

And the “MIC, 50% human serum” value (E. coli (25922); [13])?
Its value is 2.4 µM.

Source: publication PMC12873548, “D-amino acid substitution and cyclization enhance the stability and antimicrobial activity of arginine-rich peptides” (Microbiology, 2026)
